Experimental data reported in PubChem BioAssay AID1329 (NMMLSC, 2008).
Activity calls are given as the source filed them. No rule for the calls is given here.

Each compound was assayed against Induced myeloid leukemia cell differentiation protein Mcl-1 (Homo sapiens) (UniProt Q07820) (assay: modulators of Bim peptide binding to Mcl-1, dose response, biochemical, bead-based flow cytometry, multiplexed, human (AID 1329)). Conditions: Bim peptide-Mcl-1 binding, MCF.
Chain of Induced myeloid leukemia cell differentiation protein Mcl-1 (Homo sapiens) (Q07820 whole entry, looked up): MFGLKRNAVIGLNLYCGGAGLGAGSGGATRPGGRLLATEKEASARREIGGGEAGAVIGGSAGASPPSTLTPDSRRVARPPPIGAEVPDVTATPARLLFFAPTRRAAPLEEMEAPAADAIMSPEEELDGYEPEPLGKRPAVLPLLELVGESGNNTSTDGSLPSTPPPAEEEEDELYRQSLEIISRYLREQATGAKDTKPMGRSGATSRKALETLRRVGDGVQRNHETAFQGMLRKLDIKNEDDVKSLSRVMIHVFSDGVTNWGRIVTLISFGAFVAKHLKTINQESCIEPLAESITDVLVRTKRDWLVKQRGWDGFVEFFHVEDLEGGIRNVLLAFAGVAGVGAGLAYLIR

Percent span, inactive:
Cc1cc(C)nc(SCc2cc(=O)c(OC(=O)c3cccc([N+](=O)[O-])c3)co2)n1
COCCN=c1scc(-c2cccs2)n1/N=C/c1ccc(O)c(O)c1O
CCN1CCN(c2cc(C)c3cc(NC(=S)N4CCCCC4)ccc3n2)CC1
Cc1c(N=C2C=CC(=O)c3ccccc32)c(=O)n(-c2ccccc2)n1C
CCCn1c(SCC(=O)Nc2ccccc2-c2ccccc2)nnc1-c1ccoc1C
Cc1cccc(C(=O)N=c2c(C#N)cc3c(=O)n4cccc(C)c4nc3n2Cc2ccco2)c1
Cn1cc(CN2C[C@]3(C)C[C@H]2CC(C)(C)C3)c(-c2ccc3c(c2)OCCO3)n1
CCCCNC(=O)c1ccc2nc(-c3ccco3)c(-c3ccco3)nc2c1
O=C(C1=C(Nc2ccccc2)c2ccccc2S(=O)(=O)N1)c1ccccc1
Cc1ccc(-n2[nH]c(C)c(/C=N/Nc3ccc([N+](=O)[O-])cc3[N+](=O)[O-])c2=O)cc1C
CCN(CC)c1ccc(NC(=O)COc2ccccc2C)cc1S(=O)(=O)Nc1ccccc1OC
COc1ccccc1-n1c(SCC(=O)N2CCc3ccccc32)nc2c(c1=O)SCC2
CCOc1ccccc1/C=N/NC(=O)CNC(=O)COc1ccccc1
O=c1nc2c(O)cccn2c2c1c(=O)[nH]c1ccccc12
Cc1noc(C)c1COc1ccc(C(=O)Nc2cccnc2)cc1
CNc1ccc(Br)cc(C(=O)/C=C/c2cccc(OC)c2)c1=O
CCc1cccc(CC)c1NC(=S)N1CCn2cccc2C1c1cccnc1 (stereo unspecified)
O=C(N/N=C/c1ccncc1)c1cccc(NC(=O)c2ccccc2Cl)c1
O=S1(=O)N=C(N(CCO)/N=C/c2ccncc2)c2ccccc21
CN(C(=O)NC1CCCCC1)c1ccccc1
Clc1nssc1=Nc1ccccc1
CC(=O)OCCCNc1cc(Sc2nc3ccccc3s2)c2nonc2c1[N+](=O)[O-]
Nc1ccc(N2CCCCCC2)cc1
CC1Nc2ccccc2C(=O)N1NS(=O)(=O)c1ccccc1 (stereo unspecified)
Cc1ccc(SCCC(=O)Nc2ccc(Br)c(C)c2)cc1
Fc1ccccc1/C=C1\CCCC2=C1NC(=S)NC2c1ccccc1F (stereo unspecified)
CCOc1cccc(CNc2ccc(O)cc2)c1OCc1ccccc1Cl
Cc1ccc(/C=C/C(=O)c2ccccc(=O)c2O)c(C)c1
Cc1ccc(OCc2cn3cccnc3n2)cc1
C=CCn1c(C)cc(-c2csc(NC)n2)c1C
CNc1nc2ccccc2n1/N=C/c1cccc(OC)c1OC
O=[N+]([O-])c1c(NCCO)cc(Sc2nc3ccccc3s2)c2nonc12
CCOC(=O)CSc1nnc(-c2cccc(Cl)c2)n1CC
O=C(CSc1ccc(-c2ccccc2)nn1)NCc1ccco1
Nc1ccc(Nc2nc(-c3ccncc3)cs2)cc1
C#CCOCCOCCOCCNc1nc(N2CCN(C(=O)[C@H](CCCCN)n3cc(CCCC)nn3)CC2)nc(N2CCN(C(=O)[C@H](Cc3ccc(O)cc3)n3cc(CCO)nn3)CC2)n1
COc1ccccc1OCc1ccc(C(=O)Nc2ccccc2F)cc1
O=C(NC1=C(NC2CCS(=O)(=O)C2)C(=O)c2ccccc2C1=O)c1ccccc1 (stereo unspecified)
COc1ccc(N2CCN(C(=O)c3cc(=O)[nH]c4ccccc34)CC2)cc1
O=C(O)CCN1C(=O)/C(=C\c2ccc(-c3nc4ccccc4s3)o2)SC1=S
CCOc1cc(/C=C2/N=C(C)C(C(=O)OC)=C2O)ccc1O
